# Experimental data taken from patent US20060252807A1, “Novel ortho-terphenyl inhibitors of p38 kinase and methods of treating inflammatory disorders” (Kalypsys, Inc., priority 2005, published 2006).
# Target: T1, active p38 alpha enzyme (Upstate Biotechnology) (Homo sapiens, UniProt Q16539)
# T1 construct: purchased Upstate Biotechnology
# Assay: p38α biochemical assay (ATP turnover, luminescent detection, Cambrex PKlight)
# Conditions: p38α kinase; Table 1 Biological Activity
# Summary of the method: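 Active p38α phosphorylates MapkapK2 whole protein with 1.4 uM final ATP, 2 h at 30C, in Tris/MOPS buffer with MgCl2, CaCl2, EGTA, EDTA, glycerol, β-mercaptoethanol and 1 mg/ml BSA. Compounds pin-delivered from DMSO; total ATP turnover read by luminescence after PKlight addition.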
# T1 sequence (Q16539 whole entry): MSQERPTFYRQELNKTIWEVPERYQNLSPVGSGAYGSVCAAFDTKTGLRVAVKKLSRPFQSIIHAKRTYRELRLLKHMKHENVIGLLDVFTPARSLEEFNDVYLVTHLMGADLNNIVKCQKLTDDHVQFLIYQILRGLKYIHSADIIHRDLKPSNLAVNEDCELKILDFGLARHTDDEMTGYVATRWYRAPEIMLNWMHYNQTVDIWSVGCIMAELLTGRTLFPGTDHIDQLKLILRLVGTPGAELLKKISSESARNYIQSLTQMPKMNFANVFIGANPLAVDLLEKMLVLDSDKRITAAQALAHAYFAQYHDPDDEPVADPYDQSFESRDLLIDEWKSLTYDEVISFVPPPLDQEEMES
row,IC50 [µM],SMILES
1,> 1,Cc1nc(-c2ccc(F)cc2)c(-c2nc(C(=O)Nc3ncccc3C)cs2)s1 [Example 1962]
2,> 1,Cc1nc(-c2ccc(F)cc2)c(-c2nc(C(=O)Nc3ccccc3F)cs2)s1 [Example 1963]
3,> 1,Cc1nc(-c2ccc(F)cc2)c(-c2nc(C(=O)Nc3ccc(F)cc3)cs2)s1 [Example 1964]
4,> 1,Cc1ccc(C)c(NC(=O)c2csc(-c3sc(C)nc3-c3ccc(F)cc3)n2)c1 [Example 1965]
5,> 1,Cc1nc(-c2ccc(F)cc2)c(-c2nc(C(=O)Nc3ccc(C)c(C)c3)cs2)s1 [Example 1966]
6,> 1,CCc1ccccc1NC(=O)c1csc(-c2sc(C)nc2-c2ccc(F)cc2)n1 [Example 1967]
7,> 1,Cc1ccc(NC(=O)c2csc(-c3sc(C)nc3-c3ccc(F)cc3)n2)c(C)c1 [Example 1970]
8,> 1,Cc1cc(C)cc(NC(=O)c2csc(-c3sc(C)nc3-c3ccc(F)cc3)n2)c1 [Example 1971]
9,> 1,COc1cccc(NC(=O)c2csc(-c3sc(C)nc3-c3ccc(F)cc3)n2)c1 [Example 1972]
10,> 1,COc1ccc(NC(=O)c2csc(-c3sc(C)nc3-c3ccc(F)cc3)n2)cc1 [Example 1973]
11,≤ 1,COc1ccccc1NC(=O)c1csc(-c2sc(C)nc2-c2ccc(F)cc2)n1 [Example 1974]
12,≤ 1,COc1ccncc1NC(=O)c1csc(-c2sc(C)nc2-c2ccc(F)cc2)n1 [Example 1975]
13,> 1,Cc1nc(-c2ccc(F)cc2)c(-c2nc(C(=O)Nc3ccc(C)c(F)c3)cs2)s1 [Example 1976]
14,> 1,Cc1nc(-c2ccc(F)cc2)c(-c2nc(C(=O)Nc3cccc(F)c3C)cs2)s1 [Example 1977]

# The remaining lines, values behind:
row,SMILES,IC50 [µM]
1,Cc1nc(-c2ccc(F)cc2)c(-c2nc(C(=O)N3CCN(c4ccc(C(C)(C)C)cc4)CC3)cs2)s1 [Example 1944],> 1
2,Cc1nc(-c2ccc(F)cc2)c(-c2nc(C(=O)N3CCN(Cc4ccc5c(c4)OCO5)CC3)cs2)s1 [Example 1945],> 1
3,COc1cc2c(cc1OC)CN(C(=O)c1csc(-c3sc(C)nc3-c3ccc(F)cc3)n1)CC2 [Example 1946],≤ 1
4,Cc1nc(-c2ccc(F)cc2)c(-c2nc(C(=O)N3CCN(c4ccc(C(F)(F)F)cc4)CC3)cs2)s1 [Example 1947],> 1
5,Cc1nc(-c2ccc(F)cc2)c(-c2nc(C(=O)N3CCN(c4cccc(C(F)(F)F)c4)CC3)cs2)s1 [Example 1948],> 1
6,Cc1nc(-c2ccc(F)cc2)c(-c2nc(C(=O)N3CCN(c4ccc(Cl)c(Cl)c4)CC3)cs2)s1 [Example 1949],> 1
7,Cc1nc(-c2ccc(F)cc2)c(-c2nc(C(=O)N3CCN(c4ccc(C(F)(F)F)cn4)CC3)cs2)s1 [Example 1951],> 1
8,Cc1nc(-c2ccc(F)cc2)c(-c2nc(C(=O)N3CCN(c4ccccc4Cl)CC3)cs2)s1 [Example 1952],> 1
9,COc1ccc(N2CCN(C(=O)c3csc(-c4sc(C)nc4-c4ccc(F)cc4)n3)CC2)cc1OC [Example 1953],> 1
10,Cc1nc(-c2ccc(F)cc2)c(-c2nc(C(=O)N3CCCC(c4ccc(C(F)(F)F)cc4)C3)cs2)s1 (stereo not shown) [Example 1954],> 1
11,Cc1nc(-c2ccc(F)cc2)c(-c2nc(C(=O)Nc3ccccc3)cs2)s1 [Example 1955],> 1
12,Cc1cccc(NC(=O)c2csc(-c3sc(C)nc3-c3ccc(F)cc3)n2)c1 [Example 1956],> 1
13,Cc1ccc(NC(=O)c2csc(-c3sc(C)nc3-c3ccc(F)cc3)n2)cc1 [Example 1957],> 1
14,Cc1nc(-c2ccc(F)cc2)c(-c2nc(C(=O)Nc3ccccc3C)cs2)s1 [Example 1958],> 1
15,Cc1ccc(NC(=O)c2csc(-c3sc(C)nc3-c3ccc(F)cc3)n2)nc1 [Example 1959],> 1
16,Cc1cccc(NC(=O)c2csc(-c3sc(C)nc3-c3ccc(F)cc3)n2)n1 [Example 1960],> 1
17,Cc1ccnc(NC(=O)c2csc(-c3sc(C)nc3-c3ccc(F)cc3)n2)c1 [Example 1961],> 1
